Activity calls are given as the source filed them. The rule behind the calls is not given here.

This assay has as its target Influenza A virus M2 proton channel (A/TW/4845/1999 H1N1). Put plainly: NMR binding screen, influenza A virus M2 proton channel, Kd (AID 1549). The following applies: M2 protein.
For `O=C(/C=C/c1ccccc1)c1ccc(O)cc1`, the Kd was > 4 mM (inactive). As for `O=C(CSc1ccnc(=O)[nH]1)NCc1ccco1`, the figure is > 4 mM (inactive). As for `Nc1cccc(CC(=S)N2CCOCC2)c1`, the figure is > 4 mM (inactive); as for `CC1(C(=O)O)CC2C=CC1C2` (stereo unspecified), > 4 mM (inactive); as for `O=C(CNC(=O)c1cccs1)NC1=NCCS1`, > 4 mM (inactive). As for `c1ccc(-c2noc(-c3ccco3)n2)nc1`, the figure is > 4 mM (inactive); as for `Cn1c2c(c(=O)n(C)c1=O)CN(Cc1ccco1)CN2`, > 4 mM (inactive); as for `CC(=O)c1sc(NC(=O)C=C(C)C)nc1C`, > 4 mM (inactive). Consider `Cc1ccc(C(=O)N2CCC(C(N)=O)CC2)c(Cl)c1`, for which the Kd was > 4 mM (inactive). The same measure for `O=C1CSC(=Nc2ccccc2[N+](=O)[O-])N1`: > 4 mM (inactive). On to `CCn1cnc(C(=O)NC)c1C(=O)NC`, for which the Kd is > 4 mM (inactive).

Turning to `O=C(Nc1ccon1)c1cccc(Cl)c1`, the Kd was > 4 mM (inactive).

Take `CCN1C(=O)N(CO)C2C1N(C)C(=O)N2C` (stereo unspecified): the Kd was > 4 mM (inactive). With `CC(C)=CC1C(CO)C1(C)C` (stereo unspecified), the Kd is > 4 mM (inactive). The same measure for `Oc1ccc2c(c1)OCO2`: > 4 mM (inactive); for `OCc1csc(-c2ccccc2)n1`: > 4 mM (inactive); for `Cc1cc(C)n(CC(=O)NC2CCCCC2)n1`: > 4 mM (inactive). As for `Cc1ccc(NC(=O)CN2C(=O)CSC2=O)cc1`, the figure is > 4 mM (inactive). As for `COc1nc(N2CCOCC2)nc(N)c1[N+](=O)[O-]`, the figure is > 4 mM (inactive); as for `CNc1nc(OC)nc(N2CCOCC2)n1`, > 4 mM (inactive); as for `CC(=O)Nc1ccc(NC(=O)/C=C\C(=O)O)cc1`, > 4 mM (inactive). Take `Cc1ccc(-n2ncc(C#N)c2/N=C/N(C)C)cc1`: the Kd was > 4 mM (inactive). As for `CN(C)c1nc(N2CCOCC2)c2cnn(C)c2n1`, the figure is > 4 mM (inactive); as for `CN(C)C(=O)CCNS(=O)(=O)c1ccccc1`, > 4 mM (inactive). On to `Cn1c(O)c(C2=NC(=S)NC2=O)c2ccccc21`, for which the Kd is > 4 mM (inactive). As for `COc1ccc(C)cc1S(=O)(=O)N1CCCCC1`, the figure is > 4 mM (inactive); as for `COc1ccc(NS(=O)(=O)c2ccc(N)cc2)nn1`, > 4 mM (inactive). For the molecule `CC(=O)Nc1nnc(-c2ccccn2)o1`, the Kd was > 4 mM (inactive). As for `NC(=O)c1cccc(N2C(=O)C=CC2=O)c1`, the figure is > 4 mM (inactive); as for `COc1cc2c(cc1OC)Cc1cc(OC)c(OC)cc1Cc1cc(OC)c(OC)cc1C2`, > 4 mM (inactive). The same measure for `NC(=O)CSc1ccc(-c2ccco2)nn1`: > 4 mM (inactive); for `Cc1c(/C=N\n2cnnc2)c2ccccc2n1C`: > 4 mM (inactive). The same measure for `Cn1ccc(NC(=S)Nc2cccc([N+](=O)[O-])c2)n1`: > 4 mM (inactive). `Cc1c(N=Cc2ccco2)c(=O)n(-c2ccccc2)n1C`: the Kd was > 4 mM (inactive). As for `NC(=O)C1CCN(CC2CC=CCC2)CC1` (stereo unspecified), the figure is > 4 mM (inactive); as for `CC(=O)Nc1ccc(NC2SC(=O)NC2=O)cc1` (stereo unspecified), > 4 mM (inactive); as for `C/C=C/COc1nc2c(c(=O)n(C)c(=O)n2C)n1C`, > 4 mM (inactive). The same measure for `O=C1CSC(=Nc2cccc(C(F)(F)F)c2)N1`: > 4 mM (inactive); for `O=C(O)C1COc2ccccc2O1` (stereo unspecified): > 4 mM (inactive). As for `Cc1[nH]c2ccccc2c1C(=O)CSc1ncn[nH]1`, the figure is > 4 mM (inactive); as for `Cc1ccc2cccc(OC(=O)N3CCCC3)c2n1`, > 4 mM (inactive); as for `CC(=O)N1C(=S)NC(=O)/C1=C\c1cccnc1`, > 4 mM (inactive). Consider `CC(=O)Nc1ccc(NC(C)=O)c(C(F)(F)F)c1`, for which the Kd is > 4 mM (inactive). Turning to `CC1(C)C(=O)C=C[C@@]2(C)C1C=C[C@]1(C)C2CC[C@@]2(C)[C@H](c3ccoc3)OC(=O)C3OC321` (stereo partly specified), the Kd was > 4 mM (inactive). As for `CN1CN(Cc2ccccc2)CN/C1=N/[N+](=O)[O-]`, the Kd is > 4 mM (inactive). Regarding `COC1=CC(C)[C@@H]2C[C@H]3OC(=O)C[C@H]4C(C)=C(OC)C(=O)C([C@@]34C)[C@@]2(C)C1=O` (stereo partly specified), the Kd was > 4 mM (inactive). Turning to `Cc1ccc(C(=O)Nc2nnc(-c3ccncc3)s2)o1`, the Kd is > 4 mM (inactive). As for `Nc1ccn(C2O[C@H](CO)[C@@H](O)[C@H]2O)c(=O)n1` (stereo partly specified), the figure is > 4 mM (inactive); as for `O=C1C=C(Nc2ccccc2O)c2ccccc2C1=O`, > 4 mM (inactive).

Turning to `CC(=O)NCC1(c2ccccc2)CCOCC1`, the Kd was > 4 mM (inactive). As for `COc1cccc(/C=C/C(=O)O)c1C(C)C`, the figure is > 4 mM (inactive); as for `O=C1C2CC=CCC2C(=O)N1c1cccc(O)c1` (stereo unspecified), > 4 mM (inactive). Turning to `Cc1ccc(-c2c(C)n([O-])c3c([n+]2=O)CCCC3)o1`, the Kd was > 4 mM (inactive). As to `NC(=O)CCN1C(=O)c2ccccc2C1=O`, the Kd is > 4 mM (inactive). As for `Cc1ccc(SCc2nc(-c3ccncc3)no2)cc1`, the figure is > 4 mM (inactive); as for `Nc1cc(=O)[nH]c(=S)n1-c1ccc(F)cc1`, > 4 mM (inactive). As for `Cc1occc1C(=O)Nc1ccc(C(N)=O)cc1`, the figure is > 4 mM (inactive). The same measure for `COC(=O)[C@@]1(C)CCC[C@]2(C)c3ccc(O)c(C(C)C)c3CCC12` (stereo partly specified): > 4 mM (inactive).

`CCOC(=O)C1CCC(=O)c2cccn21` (stereo unspecified): the Kd is > 4 mM (inactive). The same measure for `Cc1ccc(C(=O)Nc2c[nH]c(=O)[nH]c2=O)cc1`: > 4 mM (inactive); for `OC1CCN(Cc2ccc[nH]2)CC1`: > 4 mM (inactive). On to `Nc1nnc(COc2cccc(C(F)(F)F)c2)s1`, for which the Kd was > 4 mM (inactive). As for `Cc1cccc(OCc2nnc(N)s2)c1`, the figure is > 4 mM (inactive); as for `O=C(Nc1ccc(N2CCCC2=O)cc1)c1cccc(F)c1`, > 4 mM (inactive); as for `OCc1ccc(N2CCOCC2)nc1`, > 4 mM (inactive).

For the molecule `CCN1C(=O)c2cccc3c(S(N)(=O)=O)ccc1c23`, the Kd is > 4 mM (inactive). `C#CCCCCCCCCCCCC(O)CC(O)COC(C)=O` (stereo unspecified): the Kd is > 4 mM (inactive). Take `COC(=O)CCC(C)C1CCC2C3CCC4C[C@H](O)CC[C@]4(C)C3C[C@H](O)[C@]12C` (stereo partly specified): the Kd was > 4 mM (inactive). As for `O=c1c(O)c(-c2ccccc2)oc2ccccc12`, the figure is > 4 mM (inactive); as for `c1ccc(-c2csc3ncn4nnnc4c23)cc1`, > 4 mM (inactive); as for `CNC(Cc1c[nH]c2ccccc12)C(=O)O` (stereo unspecified), > 4 mM (inactive).

For the molecule `CC1=C2C(=CO[C@H](C)[C@H]2C)C(=O)C(C(=O)O)=C1O`, the Kd was > 4 mM (inactive). As for `Cc1oc(-c2ccccc2)nc1CC(=O)O`, the figure is > 4 mM (inactive); as for `CCN1C[C@@]2(COC)C3[C@@H](OC)[C@H]4[C@@H]1[C@]3(C(OC)C[C@H]2O)C1C[C@@]2(O)[C@H](OC(=O)c3ccccc3)C1[C@]4(OC(C)=O)[C@@H](O)[C@@H]2OC` (stereo partly specified), > 4 mM (inactive); as for `CS(=O)(=O)c1ccccc1C(=O)Nc1nccs1`, > 4 mM (inactive).

In the case of `NCC(=O)c1ccccc1`, the Kd is > 4 mM (inactive). The same measure for `CC(=O)O[C@@H]1CC2C(C)(C)[C@H](O)C=C[C@]2(C)C2CC[C@]3(C)C(=CC(=O)O[C@H]3c3ccoc3)[C@@]21C` (stereo partly specified): > 4 mM (inactive). As for `O=C(O)C1(O)C[C@@H](O)C(O)[C@H](O)C1` (stereo partly specified), the figure is > 4 mM (inactive); as for `COC(=O)c1c[nH]c2ccccc12`, > 4 mM (inactive); as for `O=C(Nc1nnc(-c2ccco2)o1)C1=COCCO1`, > 4 mM (inactive). The same measure for `Nc1ccccc1N=C1CNC(=O)C1`: > 4 mM (inactive); for `O=C(O)CCN1CCOCC1`: > 4 mM (inactive); for `Cc1oc(S(=O)(=O)N2CCCCC2)cc1C(=O)O`: > 4 mM (inactive). For `Cc1cc(NC(=O)CCCn2cnc([N+](=O)[O-])n2)no1`, the Kd was > 4 mM (inactive).

Regarding `CN=C(C)c1c(O)n(C)c(=S)n(C)c1=O`, the Kd was > 4 mM (inactive). As for `CC(C)(C)NC(=O)N1CCC(C(N)=O)CC1`, the figure is > 4 mM (inactive).

For the molecule `OCc1ccc2nsnc2c1`, the Kd was > 4 mM (inactive).

For `COc1ccc(-c2ccc(SCC(N)=O)nn2)cc1`, the Kd is > 4 mM (inactive).

As to `COc1ccc(-c2cc(=O)c3c(O)cc(O)c(-c4cc(-c5cc(=O)c6c(O)cc(O)cc6o5)ccc4OC)c3o2)cc1`, the Kd was > 4 mM (inactive). In the case of `Nc1ccc2c(c1)CCCC2=O`, the Kd is > 4 mM (inactive). As for `O=C(O)c1ccc(CSc2ncn[nH]2)cc1`, the figure is > 4 mM (inactive).

As for `O=c1cnnc(NCc2ccc(F)cc2)[nH]1`, the Kd was > 4 mM (inactive).

Consider `CC(=O)Nc1ccc(NC(=O)c2ccnn2C)cc1`, for which the Kd was > 4 mM (inactive). As for `COCC(=O)Nc1ccc(C)c(Cl)c1`, the figure is > 4 mM (inactive).

Regarding `COC(=O)C[C@H]1C(C)(C)C(=O)[C@@H]2CC3=C(CC[C@]4(C)C3=CC(=O)O[C@H]4c3ccoc3)C1(C)C2=O`, the Kd is > 4 mM (inactive). As for `COc1ccccc1-c1n[nH]c(=O)o1`, the figure is > 4 mM (inactive). The same measure for `Clc1ncnc2[nH]ncc12`: > 4 mM (inactive); for `COc1ccc(C(=O)CC(=O)O)c2c1C=CC(C)(C)O2`: > 4 mM (inactive). As for `CC(=O)c1nnc2cc(C)nn2c1C`, the figure is > 4 mM (inactive). For `Nc1nncn1C(=O)c1c(Cl)cccc1Cl`, the Kd is > 4 mM (inactive). As for `CC(C)=CCc1c2c(c3occ(-c4ccc(O)cc4)c(=O)c3c1O)C=CC(C)(C)O2`, the figure is > 4 mM (inactive).

Broadly, the Kd is the free concentration of one partner at which half of the binding sites on the other are occupied at equilibrium, for simple one-to-one binding.

Source of the values: PubChem BioAssay AID1549 (Sanford-Burnham Center for Chemical Genomics, 2009).
